Measured values published in ChEMBL document CHEMBL1201862, “PubChem BioAssay data set” (2004).
The source made the active and inactive calls.

Assays:
[1] = molecular target: Heat shock protein HSP 90-alpha (Homo sapiens, UniProt P07900); format: functional, organism-based
[2] = viability of uninfected HEp-2 cells – cell-based, HTS, cytotoxicity control for RSV inhibitor project, dose response (AID 2410); format: functional; settings: human respiratory syncytial virus
[3] = luciferase reporter signal suppression in cells – H4 neuroglioma cells, luminescence, dose response (AID 1990); format: functional, cell-based
[4] = Luminescence Cell-Based Dose Response HTS to Identify Inhibitors of 5'UTR Stem-Loop Driven Prion Protein mRNA Translation in H4 Neuroglioblastoma Cells. [Related pubchem assays: 1827 (Project Summary), 1813 (Primary HTS)]; format: functional
[5] = tested on: Vero; assay: mammalian cell viability reduction – secondary assay, cytotoxicity control for West Nile virus antiviral project, dose response (AID 1650); format: functional; settings: Chlorocebus sabaeus
[6] = alpha-synuclein stem-loop luciferase translation blockers – H4 neuroglioma cells, luminescence, confirmation (AID 1988); format: functional, cell-based
[7] = tested on: Vero; assay: cells; format: functional, cell-based; settings: Chlorocebus sabaeus
[8] = tested on: Vero; assay: cells; format: functional; settings: Chlorocebus sabaeus
[9] = tested on: HeLa; assay: ATP-based viability loss in HeLa cells – cell-based, CellTiter-Glo luminescence, cherry-pick samples, cytotoxicity control for MITF activator project, dose response (AID 540259); format: functional; settings: Homo sapiens
[10] = molecular target: T1, Heat shock factor protein 1 (Mus musculus, UniProt P38532); assay: enhancement of HSF1-driven luciferase signal – cell-based, NIH3T3, luminescence, dose retest, confirmation (AID 435004); format: functional;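 further: stress induced by proteasome inhibitor MG132 added 30 min after compound; luciferase reporter driven by HSF1 response element in NIH3T3 cells; actives raise luminescence as potentiators of the MG132 stress response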
T1 sequence (P38532 whole entry): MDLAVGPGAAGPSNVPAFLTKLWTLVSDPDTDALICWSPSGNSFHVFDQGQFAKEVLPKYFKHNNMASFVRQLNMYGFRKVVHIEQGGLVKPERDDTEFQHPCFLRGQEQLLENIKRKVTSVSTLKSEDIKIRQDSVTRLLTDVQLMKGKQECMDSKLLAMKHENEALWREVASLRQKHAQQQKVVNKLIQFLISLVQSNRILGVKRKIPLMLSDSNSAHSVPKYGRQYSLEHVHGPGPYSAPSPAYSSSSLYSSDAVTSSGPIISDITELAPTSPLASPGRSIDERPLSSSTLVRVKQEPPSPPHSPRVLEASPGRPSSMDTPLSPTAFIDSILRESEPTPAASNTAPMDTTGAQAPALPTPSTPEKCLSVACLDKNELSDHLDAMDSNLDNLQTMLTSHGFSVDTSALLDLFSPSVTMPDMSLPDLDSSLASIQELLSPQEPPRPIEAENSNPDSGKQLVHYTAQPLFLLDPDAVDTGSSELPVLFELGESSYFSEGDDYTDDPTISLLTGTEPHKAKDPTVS

[11] = molecular target: T2, Cytochrome P450 1A2 (Homo sapiens, UniProt P05177);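 further: PubChem cytochrome P450 panel assay, CYP1A2 panel member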
T2 sequence (P05177 whole entry): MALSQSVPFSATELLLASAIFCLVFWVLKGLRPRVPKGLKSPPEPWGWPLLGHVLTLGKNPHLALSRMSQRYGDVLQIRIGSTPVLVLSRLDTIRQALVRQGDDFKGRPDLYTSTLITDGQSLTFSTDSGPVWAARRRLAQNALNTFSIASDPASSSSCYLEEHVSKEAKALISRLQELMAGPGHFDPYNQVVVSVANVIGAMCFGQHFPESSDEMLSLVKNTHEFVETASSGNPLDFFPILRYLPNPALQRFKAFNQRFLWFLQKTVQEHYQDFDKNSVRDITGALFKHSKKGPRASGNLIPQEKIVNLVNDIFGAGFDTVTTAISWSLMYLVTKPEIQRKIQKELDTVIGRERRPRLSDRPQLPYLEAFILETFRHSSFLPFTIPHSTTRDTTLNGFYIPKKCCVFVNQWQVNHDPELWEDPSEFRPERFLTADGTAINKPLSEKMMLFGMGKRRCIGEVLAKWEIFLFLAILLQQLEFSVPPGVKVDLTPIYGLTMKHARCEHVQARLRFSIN

[12] = molecular target: Cytochrome P450 3A4 (Homo sapiens, UniProt P08684);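 further: CYP3A4 tested as one member of a cytochrome P450 panel screen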
[13] = molecular target: T3, Voltage-gated N-type calcium channel alpha-1B subunit/Amyloid beta A4 precursor protein-binding family A member 1 (Homo sapiens, UniProt Q00975+Q02410); format: protein assay
[14] = molecular target: T3, Voltage-gated N-type calcium channel alpha-1B subunit/Amyloid beta A4 precursor protein-binding family A member 1; format: protein assay; remark: listed apart in the source
[15] = tested on: Escherichia coli; assay: microbe, parasite or virus in culture
[16] = molecular target: T4, Microphthalmia-associated transcription factor (Homo sapiens, UniProt O75030); assay: reducers of TRPM1 reporter luminescence, concentration series – cell-based, SK-MEL-5, cherry-picked, set 3, MITF inhibitor project, dose response (AID 493073); format: functional;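 further: SK-MEL-5 melanoma cells with luciferase driven by the MITF target TRPM1 promoter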
T4 sequence (O75030 whole entry): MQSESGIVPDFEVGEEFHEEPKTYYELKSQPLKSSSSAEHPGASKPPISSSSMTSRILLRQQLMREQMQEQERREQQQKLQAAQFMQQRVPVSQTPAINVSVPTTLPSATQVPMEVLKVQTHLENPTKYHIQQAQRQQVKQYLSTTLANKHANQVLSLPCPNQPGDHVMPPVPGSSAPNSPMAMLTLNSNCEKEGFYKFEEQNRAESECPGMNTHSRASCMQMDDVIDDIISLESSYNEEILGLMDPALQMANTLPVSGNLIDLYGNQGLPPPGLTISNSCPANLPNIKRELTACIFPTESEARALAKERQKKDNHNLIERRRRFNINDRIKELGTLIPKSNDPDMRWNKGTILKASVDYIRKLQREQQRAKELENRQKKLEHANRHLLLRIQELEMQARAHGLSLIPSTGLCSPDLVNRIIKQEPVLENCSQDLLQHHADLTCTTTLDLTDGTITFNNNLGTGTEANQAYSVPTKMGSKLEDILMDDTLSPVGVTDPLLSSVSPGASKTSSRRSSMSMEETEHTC

[17] = tested on: CHO; assay: CHO cell viability loss, potency – luminescence, cytotoxicity control for TLR9-MyD88 binding inhibitor project, dose response (AID 588339); format: functional, cell-based, hamster; settings: Cricetulus griseus;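 further: CHO cells stably coexpressing TLR9 and MyD88 fusions from primary screen; compound exposure lasted 48 hours before viability readout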
[18] = reduction of Shn3 3'UTR-driven luciferase in osteoblasts – cell-based, Clone20 osteoblasts, firefly luciferase, cherry-picked, dose response (AID 624132); format: functional;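 further: firefly luciferase luminescence from reporter carrying the Shn3 3'UTR in osteoblasts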
[19] = loss of viability in HepG2 cells – cell-based, CellTiter-Glo, cherry-picked, cytotoxicity control for Shn3 inhibitor project, dose response (AID 624134); format: functional
[20] = non-specific 3'UTR reporter inhibition in Clone20-Shn3RL – cell-based, Renilla luciferase, cherry-picked, counter-screen for Shn3 inhibitor project, dose response (AID 624133); format: functional
[21] = molecular target: Paired box protein Pax-8 (Homo sapiens, UniProt Q06710); assay: PAX8 transcriptional activity inhibition in RMG-I – RMG-I cells, luciferase, cherry-pick, dose response (AID 687027); format: functional, cell-based;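 further: luciferase reporter driven by Pax8 target thyroperoxidase promoter measured by SteadyGlo luminescence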
[22] = general cell-killing toxicity readout – plate reader, dry powder samples, cytotoxicity control for PAX8 inhibitor project, dose response (AID 743021); format: functional, cell-based

T3 sequence (Q00975 whole entry): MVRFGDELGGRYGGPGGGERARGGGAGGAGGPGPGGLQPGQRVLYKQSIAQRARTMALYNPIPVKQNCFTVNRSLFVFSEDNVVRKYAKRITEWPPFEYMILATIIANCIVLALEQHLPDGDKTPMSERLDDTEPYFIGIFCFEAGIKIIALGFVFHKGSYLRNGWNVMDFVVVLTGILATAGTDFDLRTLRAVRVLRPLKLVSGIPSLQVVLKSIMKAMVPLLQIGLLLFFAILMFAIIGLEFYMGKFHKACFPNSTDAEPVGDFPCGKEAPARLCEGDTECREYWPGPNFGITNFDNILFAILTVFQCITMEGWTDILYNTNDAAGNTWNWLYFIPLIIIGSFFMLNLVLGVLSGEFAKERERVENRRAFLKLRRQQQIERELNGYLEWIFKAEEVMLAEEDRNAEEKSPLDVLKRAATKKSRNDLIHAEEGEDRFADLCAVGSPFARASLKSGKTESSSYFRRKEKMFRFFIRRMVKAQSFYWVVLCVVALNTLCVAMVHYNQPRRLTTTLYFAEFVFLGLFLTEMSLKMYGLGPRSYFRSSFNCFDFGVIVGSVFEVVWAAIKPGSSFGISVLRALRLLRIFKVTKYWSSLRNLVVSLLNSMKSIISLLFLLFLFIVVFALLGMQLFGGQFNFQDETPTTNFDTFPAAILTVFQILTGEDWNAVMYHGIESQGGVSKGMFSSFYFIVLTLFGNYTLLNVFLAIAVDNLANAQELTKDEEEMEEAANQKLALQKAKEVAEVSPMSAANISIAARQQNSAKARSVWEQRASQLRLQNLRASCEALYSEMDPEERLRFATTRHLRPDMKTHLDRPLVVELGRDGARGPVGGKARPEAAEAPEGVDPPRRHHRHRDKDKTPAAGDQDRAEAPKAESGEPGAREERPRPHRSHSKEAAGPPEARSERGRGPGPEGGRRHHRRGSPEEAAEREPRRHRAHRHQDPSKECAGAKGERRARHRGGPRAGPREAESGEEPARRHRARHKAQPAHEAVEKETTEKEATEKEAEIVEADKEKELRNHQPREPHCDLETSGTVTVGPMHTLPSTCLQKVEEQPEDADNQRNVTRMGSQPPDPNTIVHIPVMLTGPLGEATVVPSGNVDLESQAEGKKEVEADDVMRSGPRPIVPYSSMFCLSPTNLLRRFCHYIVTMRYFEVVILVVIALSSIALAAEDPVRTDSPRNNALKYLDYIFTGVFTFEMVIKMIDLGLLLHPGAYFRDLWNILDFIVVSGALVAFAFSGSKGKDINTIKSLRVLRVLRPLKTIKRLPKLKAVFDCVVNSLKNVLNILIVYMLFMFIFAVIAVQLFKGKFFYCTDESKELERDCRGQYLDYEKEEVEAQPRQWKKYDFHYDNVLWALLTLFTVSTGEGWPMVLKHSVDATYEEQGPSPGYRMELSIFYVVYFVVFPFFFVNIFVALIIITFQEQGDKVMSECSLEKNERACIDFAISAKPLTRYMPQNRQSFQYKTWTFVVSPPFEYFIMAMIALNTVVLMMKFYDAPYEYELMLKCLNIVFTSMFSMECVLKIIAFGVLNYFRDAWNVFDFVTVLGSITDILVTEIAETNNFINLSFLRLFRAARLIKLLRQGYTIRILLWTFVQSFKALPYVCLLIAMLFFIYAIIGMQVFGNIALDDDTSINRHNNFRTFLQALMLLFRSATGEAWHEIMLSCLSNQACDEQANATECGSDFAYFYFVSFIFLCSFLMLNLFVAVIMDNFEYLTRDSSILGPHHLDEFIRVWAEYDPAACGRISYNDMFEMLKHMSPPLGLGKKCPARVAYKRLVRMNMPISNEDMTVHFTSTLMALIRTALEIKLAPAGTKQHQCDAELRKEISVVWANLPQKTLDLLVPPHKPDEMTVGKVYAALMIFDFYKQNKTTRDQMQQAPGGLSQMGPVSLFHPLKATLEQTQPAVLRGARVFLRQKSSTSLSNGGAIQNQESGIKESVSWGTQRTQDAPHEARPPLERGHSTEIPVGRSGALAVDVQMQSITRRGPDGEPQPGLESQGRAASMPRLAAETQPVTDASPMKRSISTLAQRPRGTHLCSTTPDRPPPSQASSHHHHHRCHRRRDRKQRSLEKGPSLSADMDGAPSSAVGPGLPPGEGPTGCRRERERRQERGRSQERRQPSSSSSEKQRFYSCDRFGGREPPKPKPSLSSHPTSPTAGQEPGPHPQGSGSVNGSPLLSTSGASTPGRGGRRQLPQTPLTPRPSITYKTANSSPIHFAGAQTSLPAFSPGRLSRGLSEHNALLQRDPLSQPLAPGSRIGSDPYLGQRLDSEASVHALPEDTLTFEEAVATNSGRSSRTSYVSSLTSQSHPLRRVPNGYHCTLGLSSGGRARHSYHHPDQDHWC
T3 sequence (Q02410 whole entry): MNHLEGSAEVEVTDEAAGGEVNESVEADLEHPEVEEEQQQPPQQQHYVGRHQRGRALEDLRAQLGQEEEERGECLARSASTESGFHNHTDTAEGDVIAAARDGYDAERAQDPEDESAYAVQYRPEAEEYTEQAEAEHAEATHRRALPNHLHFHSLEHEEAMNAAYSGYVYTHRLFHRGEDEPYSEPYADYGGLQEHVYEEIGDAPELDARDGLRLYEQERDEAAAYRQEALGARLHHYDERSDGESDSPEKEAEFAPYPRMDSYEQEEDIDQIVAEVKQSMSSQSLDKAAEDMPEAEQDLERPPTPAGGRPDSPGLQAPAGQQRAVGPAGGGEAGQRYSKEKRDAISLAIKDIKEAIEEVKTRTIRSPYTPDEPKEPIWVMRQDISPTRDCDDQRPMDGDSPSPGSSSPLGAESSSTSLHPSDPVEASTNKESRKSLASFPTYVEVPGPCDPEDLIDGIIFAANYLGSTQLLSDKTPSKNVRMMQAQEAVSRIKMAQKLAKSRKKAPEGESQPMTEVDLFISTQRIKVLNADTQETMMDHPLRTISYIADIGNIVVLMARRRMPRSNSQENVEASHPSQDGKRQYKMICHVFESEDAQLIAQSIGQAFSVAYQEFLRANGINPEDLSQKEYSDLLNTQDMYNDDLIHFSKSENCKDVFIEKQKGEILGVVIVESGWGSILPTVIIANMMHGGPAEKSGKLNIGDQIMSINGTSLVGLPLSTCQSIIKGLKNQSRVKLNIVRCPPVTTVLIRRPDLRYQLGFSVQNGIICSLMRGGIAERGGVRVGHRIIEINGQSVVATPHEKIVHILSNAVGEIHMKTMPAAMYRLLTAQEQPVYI
Paired box protein Pax-8, sequence (Q06710 whole entry): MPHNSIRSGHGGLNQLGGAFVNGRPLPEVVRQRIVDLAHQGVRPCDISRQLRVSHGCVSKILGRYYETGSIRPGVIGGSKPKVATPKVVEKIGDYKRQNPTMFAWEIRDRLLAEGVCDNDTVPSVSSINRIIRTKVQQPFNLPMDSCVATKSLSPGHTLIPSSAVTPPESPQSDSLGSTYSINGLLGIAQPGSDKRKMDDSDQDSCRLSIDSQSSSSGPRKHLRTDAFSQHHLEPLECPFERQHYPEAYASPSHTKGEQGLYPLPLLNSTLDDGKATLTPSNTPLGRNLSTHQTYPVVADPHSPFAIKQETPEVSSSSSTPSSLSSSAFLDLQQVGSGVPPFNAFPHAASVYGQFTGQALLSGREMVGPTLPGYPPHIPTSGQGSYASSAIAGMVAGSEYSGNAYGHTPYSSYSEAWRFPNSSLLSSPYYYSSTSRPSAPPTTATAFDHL
Cytochrome P450 3A4, sequence (P08684 whole entry): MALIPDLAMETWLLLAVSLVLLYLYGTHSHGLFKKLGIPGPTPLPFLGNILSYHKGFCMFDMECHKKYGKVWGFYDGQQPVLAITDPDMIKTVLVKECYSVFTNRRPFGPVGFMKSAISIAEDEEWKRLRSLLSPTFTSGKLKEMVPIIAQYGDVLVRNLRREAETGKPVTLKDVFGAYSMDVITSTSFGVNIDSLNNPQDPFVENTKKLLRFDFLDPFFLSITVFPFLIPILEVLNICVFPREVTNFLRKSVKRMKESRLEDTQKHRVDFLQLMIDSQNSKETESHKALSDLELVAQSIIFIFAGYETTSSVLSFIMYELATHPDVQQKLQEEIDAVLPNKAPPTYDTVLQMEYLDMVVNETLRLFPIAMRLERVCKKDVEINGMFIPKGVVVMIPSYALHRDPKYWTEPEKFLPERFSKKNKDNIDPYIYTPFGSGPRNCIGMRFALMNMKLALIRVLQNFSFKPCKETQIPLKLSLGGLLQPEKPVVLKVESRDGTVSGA

Question: For `CC1(C(=O)c2ccccc2)C2c3c(ccc4ccccc34)OC(=O)C21C(=O)N1CCOCC1` (stereo not given), which AC50 [1] is on record?
Answer: 4.17 µM (active)

Question: What does the source list for `O=S(=O)(c1cccs1)N1CCN(c2ccnc3cc(Cl)ccc23)CC1`?
Answer: CC50 [2]: 14.3 µM (active); EC50 [3]: 13.5 µM (active); EC50 [4]: 13.1 µM (active); CC50 [5]: 30 µM (active); EC50 [6]: > 120 µM (not active); IC50 [7]: > 25 µM (active); CC50 [8]: 22 µM (active)

Question: Which AC50 [9] does the source give for `Cc1ccc(-c2noc(C3CCCCC3)n2)cc1` here?
Answer: 79.6 µM (active)

Question: Which results are given for `O=C(c1ccc2c(=O)n(C3CCCC3)c(=S)[nH]c2c1)N1CCc2ccccc21`?
Answer: EC50 [10]: > 260 µM (inactive); AC50 [1]: 3.49 µM (active)

Question: What does the source list for `S=C1SCN(CCN2CCOCC2)CN1Cc1ccccc1`?
Answer: IC50 [7]: > 25 µM (active); CC50 [8]: 24.4 µM (active); AC50 [11]: 6.31 µM (inconclusive); AC50 [12]: 28.2 µM (inconclusive)

Question: With `O=C(O)CCc1ccc(-c2cccs2)o1` as the compound, how does the IC50 [13] read?
Answer: 21.3 µM (active)

Question: And the IC50 [14]?
Answer: 3.13 µM (active)

Question: What about the AC50 [15] of the same compound?
Answer: > 380 µM (inactive)

Question: For `CS(=O)(=O)c1ccc(C(=O)OCC(=O)NCc2cccs2)cc1[N+](=O)[O-]`, which AC50 [16] is on record?
Answer: 11.7 µM (active)

Question: What about the IC50 [17] of the same compound?
Answer: 4.83 µM (active)

Question: What about the AC50 [18] of the same compound?
Answer: 2.07 µM (active)

Question: What about the AC50 [19] of the same compound?
Answer: 62.3 µM (active)

Question: What about the AC50 [20] of the same compound?
Answer: 13.4 µM (active)

Question: What about the AC50 [21] of the same compound?
Answer: 14 µM (active)

Question: And the AC50 [22]?
Answer: 26 µM (active)
